Data as given in patent US20090005373A1, “SUBSTITUTED SULFONAMIDO-MACROCYCLES AS TIE2 INHIBITORS AND SALTS THEREOF, PHARMACEUTICAL COMPOSITIONS COMPRISING SAME, METHODS OF PREPARING SAME AND USES OF SAME” (priority 2006, published 2009).

What was measured:
Type in all cases: biochemical
Tie-2 = biological target: T1, Tie-2 (Homo sapiens, UniProt Q02763); test: Tie-2-Kinase HTRF-Assay without Kinase Preactivation (assay 2); settings: 10 μM ATP, no kinase preactivation
T1 construct: A recombinant fusion protein of GST and the intracellular domains of Tie-2, expressed in insect cells (Hi-5); GST; made in house; host or cells: Hi-5 insect cells
T1 sequence (Q02763 770-1124 limits assumed): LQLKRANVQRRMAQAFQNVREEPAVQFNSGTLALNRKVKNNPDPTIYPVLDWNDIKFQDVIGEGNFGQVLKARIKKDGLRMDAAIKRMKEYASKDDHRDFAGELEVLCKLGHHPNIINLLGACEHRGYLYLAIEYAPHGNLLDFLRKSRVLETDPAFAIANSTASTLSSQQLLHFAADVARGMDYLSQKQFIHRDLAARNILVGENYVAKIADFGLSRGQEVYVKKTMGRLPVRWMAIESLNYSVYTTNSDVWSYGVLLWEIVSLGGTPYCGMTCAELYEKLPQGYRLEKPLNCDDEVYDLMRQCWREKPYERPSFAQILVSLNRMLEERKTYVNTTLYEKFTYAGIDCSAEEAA
Source text: Tie2-inhibitory activity of compounds of the present invention was quantified employing two Tie2 HTRF assay as described in the following paragraphs.
A recombinant fusion protein of GST and the intracellular domains of Tie-2, expressed in insect cells (Hi-5) and purified by Glutathion-Sepharose affinity chromatography was used as kinase. Alternatively, commercially available GST-Tie2-fusion protein (Upstate Biotechnology, Dundee, Scotland) can be used As substrate for the kinase reaction the biotinylated peptide biotin-Ahx-EPKDDAYPLYSDFG (C-terminus in amid form) was used which can be purchased e.g. from the company Biosynthan GmbH (Berlin-Buch, Germany). Detection of phosphorylated product is achieved specifically by a trimeric detection complex consisting of the phosphorylated substrate, streptavidin-XLent (SA-XLent) which binds to biotin, and Europium Cryptate-labeled anti-phosphotyrosine antibody PT66 which binds to phosphorylated tyrosine.
Tie-2 (3.5 ng/measurement point) was incubated for 60 min at 22° C. in the presence of 10 μM adenosine-tri-phosphate (ATP) and 1 μM substrate peptide (biotin-Ahx-EPKDDAYPLYSDFG-NH2) with different concentrations of test compounds (0 μM and concentrations in the range 0.001-20 μM) in 5 μl assay buffer [50 mM Hepes/NaOH pH 7, 10 mM MgCl2, 0.5 mM MnCl2, 1.0 mM dithiothreitol, 0.01% NP40, protease inhibitor mixture (“Complete w/o EDTA” from Roche, 1 tablet per 2.5 ml), 1% (v/v) dimethylsulfoxide]. The reaction was stopped by the addition of 5 μl of an aqueous buffer (25 mM Hepes/NaOH pH 7.5, 0.28% (w/v) bovine serum albumin) containing EDTA (90 mM) and the HTRF (Homogeneous Time Resolved Fluorescence) detection reagents streptavidine-XLent (0.2 μM, from Cis Biointernational, Marcoule, France) and PT66-Eu-Chelate (0.3 ng/μl; a europium-chelate labelled anti-phospho-tyrosine antibody from Perkin Elmer).
(§1) The resulting mixture was incubated 1 h at 22° C. to allow the binding of the biotinylated phosphorylated peptide to the streptavidine-XLent and the PT66-Eu-Chelate. Subsequently the amount of phosphorylated substrate peptide was evaluated by measurement of the resonance energy transfer from the PT66-Eu-Chelate to the streptavidine-XLent. Therefore, the fluorescence emissions at 620 nm and 665 nm after excitation at 350 nm was measured in a HTRF reader, e.g. a Rubystar (BMG Labtechnologies, Offenburg, Germany) or a Viewlux (Perkin-Elmer). The ratio of the emissions at 665 nm and at […] was taken as the measure for the amount of phosphorylated substrate peptide. The data were normalised (enzyme reaction without inhibitor=0% inhibition, all other assay components but no enzyme=100% inhibition) and IC50 values were calculated by a 4 parameter fit using an inhouse software.

human KDR = biological target: T2, human KDR (Homo sapiens, UniProt P35968); test: KDR Kinase Assay, HTRF (assay 5); settings: 10 μM ATP
T2 construct: GST-tagged recombinant kinase domain of the human KDR; GST; host or cells: SF-9 insect cells
T2 sequence (P35968 834-1162 limits assumed): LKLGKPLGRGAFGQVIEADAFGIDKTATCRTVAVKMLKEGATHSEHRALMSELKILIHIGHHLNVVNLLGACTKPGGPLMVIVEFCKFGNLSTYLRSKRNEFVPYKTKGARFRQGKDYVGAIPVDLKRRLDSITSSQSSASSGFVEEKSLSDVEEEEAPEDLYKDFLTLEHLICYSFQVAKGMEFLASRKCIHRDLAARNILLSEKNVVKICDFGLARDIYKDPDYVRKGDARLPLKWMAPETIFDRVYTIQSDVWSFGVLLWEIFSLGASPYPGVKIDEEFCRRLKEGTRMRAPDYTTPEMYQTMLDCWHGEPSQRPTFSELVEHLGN
Description: Assay 5: KDR Kinase Assay
KDR inhibitory activity of compounds of the present invention was quantified employing the KDR HTRF assay as described in the following paragraphs.
GST-tagged recombinant kinase domain of the human KDR expressed in SF-9 cells was used as kinase. As substrate for the kinase reaction the biotinylated peptide biotin-Ahx-DFGLARDMYDKEYYSVG (C-terminus in acid form) was used which can be purchased e.g. form the company Biosynthan GmbH (Berlin-Buch, Germany). KDR was incubated for 45 min at 22° C. in the presence of different concentrations of test compounds in 5 μl assay buffer [50 mM Hepes/NaOH pH 7.0, 25 mM MgCl2, 5 mM MnCl2, 1.0 mM dithiothreitol, 0.1 mM sodium ortho-vanadate, 10 μM adenosine-tri-phosphate (ATP), 0.5 μM substrate, 0.001% (v/v) Nonidet-P40 (Sigma), 1% (v/v) dimethylsulfoxide]. The concentration of KDR was adjusted depending of the activity of the enzyme lot and was chosen appropriate to have the assay in the linear range. The reaction was stopped by the addition of 5 μl of a solution of HTRF detection reagents (0.1 μM streptavidine-XLent and 2 nM PT66-Eu-Chelate, an europium-chelate labelled anti-phospho-tyrosine antibody from Perkin Elmer) in an aqueous EDTA-solution (125 mM EDTA, 0.2% (w/v) bovine serum albumin in 50 mM HEPES/NaOH pH 7.0).
as §1, with “substrate” for “substrate peptide”, “substrate.” for “substrate peptide.”

CDK2/CycE = biological target: T3, CDK2/CycE (Homo sapiens, UniProt P24941); test: CDK2 HTRF Assay (assay 4); settings: pIC50 = −log IC50 in molar concentration; 10 μM ATP
T3 construct: GST; purchased ProQinase GmbH (Freiburg, Germany); host or cells: Sf9 insect cells
Source text: CDK2/CycE—inhibitory activity of compounds of the present invention was quantified employing the CDK2/CycE HTRF assay as described in the following paragraphs.
Recombinant fusion proteins of GST and human CDK2 and of GST and human CycE, expressed in insect cells (Sf9) and purified by Glutathion-Sepharose affinity chromatography, were purchase from ProQinase GmbH (Freiburg, Germany). As substrate for the kinase reaction biotinylated peptide biotin-Ttds-YISPLKSPYKISEG (C-terminus in amid form) was used which can be purchased e.g. form the company JERINI peptide technologies (Berlin, Germany).
CDK2/CycE was incubated for 60 min at 22° C. in the presence of different concentrations of test compounds in 5 μl assay buffer [50 mM Tris/HCl pH […], 1.0 mM dithiothreitol, 0.1 mM sodium ortho-vanadate, 10 μM adenosine-tri-phosphate (ATP), 0.75 μM substrate, 0.01% (v/v) Nonidet-P40 (Sigma), 1% (v/v) dimethylsulfoxide]. The concentration of CDK2/CycE was adjusted depending of the activity of the enzyme lot and was chosen appropriate to have the assay in the linear range, typical concentrations were in the range of 1 ng/ml. The reaction was stopped by the addition of 5 μl of a solution of HTRF detection reagents (0.2 μM streptavidine-XLent and 3.4 nM Phospho-(Ser) CDKs Substrate Antibody [product #2324B, Cell Signalling Technology, Danvers, Mass., USA} and 4 nM Prot-A-EuK [Protein A labeled with Europium Cryptate from Cis biointernational, France, product no. 61PRAKLB]) in an aqueous EDTA-solution (100 mM EDTA, 800 mM KF, 0.2% (w/v) bovine serum albumin in 100 mM HEPES/NaOH pH 7.0).

Plk1 = biological target: T4, Plk1 (Homo sapiens, UniProt P53350); test: Plk1 Inhibition Assay, SPA (assay 6); settings: ATP 0.5 μM
T4 construct: N-terminally 6His-tagged full length Plk1; 6His (N); made in house
T4 sequence (P53350 whole entry): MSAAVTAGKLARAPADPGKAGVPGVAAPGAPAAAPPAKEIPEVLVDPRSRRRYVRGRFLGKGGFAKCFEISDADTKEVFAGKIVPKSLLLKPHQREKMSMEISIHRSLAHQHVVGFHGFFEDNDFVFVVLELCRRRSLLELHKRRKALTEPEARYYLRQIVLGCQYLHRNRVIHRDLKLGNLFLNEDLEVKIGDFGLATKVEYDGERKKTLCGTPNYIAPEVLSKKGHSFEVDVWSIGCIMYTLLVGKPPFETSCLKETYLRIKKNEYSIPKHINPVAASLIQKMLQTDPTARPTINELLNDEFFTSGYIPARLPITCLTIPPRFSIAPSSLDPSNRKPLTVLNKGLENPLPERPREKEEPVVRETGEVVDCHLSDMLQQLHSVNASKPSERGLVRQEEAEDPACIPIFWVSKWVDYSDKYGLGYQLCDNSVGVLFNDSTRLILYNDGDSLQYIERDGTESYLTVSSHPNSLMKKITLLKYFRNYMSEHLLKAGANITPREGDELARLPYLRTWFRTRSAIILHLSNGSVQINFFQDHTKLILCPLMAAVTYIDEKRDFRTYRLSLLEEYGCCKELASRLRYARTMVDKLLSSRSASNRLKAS
Source text: Assay 6: Plk1 Inhibition Assay
Plk1 phosphorylates serine/threonine residues of the biotinylated substrate bovine α-casein in the presence of [γ-^33P]ATP. Detection of the radiolabeled phosphorylated product is achieved by binding to streptavidine-coated SPA beads. The biotin moieties of biotinylated casein bind with high affinity to the streptavidine. The radiolabeled biotinylated casein produced by the Plk1 kinase reaction is able to generate a chemoluminescent signal when strepatavidine-mediated binding occurs to the scintillant-containing surface of the beads due to the close proximity of the radiolabel and the scintillant. […] The signals obtained are therefore indicative of the Plk1 kinase activity. Measurement is performed in a Perkin-Elmer TopCount instrument.
Enzyme: Purified human recombinant PLK1 [N-terminally 6His-tagged full length Plk1], prepared in house, conc.: 0.4 μg/μl Substrate: biotinylated bovine α-casein. Unbiotinylated casein obtained from Sigma was biotinylated by standard procedures using N-hydroxysuccinimide (NHS) ester of biotin. SPA-beads: PVT streptavidin SPA Beads, Amersham (# RPNQ0007) Reference compound: Wortmannin Assay plates: 384-well plates, small volume, white, Greiner (#784075) Buffer Materials Hepes: Sigma (# H-4034), MnCl2: Sigma (# M-1787), MgCl2: Sigma [# M-1028], NaCl: Merck [#1.06404.100], DTT: Biomol (#04010), NP40: Fluka (#74385), Complete EDTA-free: Roche [#1873580], ATP: Amersham (#27-2056), 33P-gamma-ATP: Perkin Elmer (Easytides # NEG/602H), EDTA: Sigma (# E-7889), PBS: Gibco (#14190-094), ATP for stopping solution: Sigma #(A-7699), DMSO: Merck [#8.02912.1000] Sealing tape: Greiner (#676080) Reader: TopCount instrument (PerkinElmer)
Assay buffer: 2.5 mM MnCl2, 5 mM MgCl2, 120 mM NaCl, 1 mM DTT, 50 mM Hepes pH 7.0, 0.01% NP40, 1× Complete (protease inhibitor cocktail) Enzyme working solution: 2.86 ng/μl PLK1 in assay buffer Substrate working solution: 1 μM ATP, 1.4 μM biotinylated a-Casein, 2.0 nCi/μl in assay buffer Stop/Detection solution: 50 μM ATP, 20 mM EDTA, 5 μg/μl beads in PBS 3. Assay protocol for small volume screen (all steps at 20° C., pipetted with CyBi-Well pipettor) • 1. 0.75 μl Compound in 30% or 100% DMSO • 2. addition of 3.5 μl Enzyme working solution • 3. addition of 3.5 μl Substrate working solution incubation 180 min • 4. addition of 10 μl Stop/Detection solution • 5. sealing of the plates, incubation 30 min, 10 min centrifugation at 1500 rpm • 6. Measurement in TopCount reader (60 sec/well)
Final concentrations, calculated for 7 μl reaction volume: PLK1 10 ng/well; a-Casein 0.7 μM; ATP 0.5 μM; gamma-33P-ATP 7 nCi/well, 2.5 mM MnCl2, 5 mM MgCl2, 120 mM NaCl, 1 mM DTT, 50 mM Hepes pH 7.0, 0.01% NP40, 1× Complete, 3% or 10% DMSO
The data were normalised (enzyme reaction without inhibitor=0% inhibition, enzyme reaction in the presence of 3.0 E-06 M wortmannin=100% inhibition) and IC50 values were calculated by a 4-parameter fit using an in house software.

SMILES | IC50 (Tie-2) | IC50 (human KDR) | IC50 (CDK2/CycE) | IC50 (Plk1)
O=S1(=O)NCCCNc2nc(ncc2C#CCNS(=O)(=O)c2cccc(Cl)c2Cl)Nc2cccc1c2 [Example 8, 2,3-Dichloro-N-[3-(13,13-dioxo-13λ^6-thia-2,4,8,12,19-pentaaza-tricyclo[12.3.1.1^3,7]-nonadeca-1(18),3(19),4,6,14,16-hexaen-6-yl)-prop-2-ynyl]-benzenesulfonamide] | 100 to 1000 nM | ≤ 100 nM | 1000 to 10000 nM | > 10000 nM
Cc1ccc(F)c(S(=O)(=O)NCCC#Cc2cnc3nc2NCCCNS(=O)(=O)c2cccc(c2)N3)c1 [Example 13, N-[4-(13,13-Dioxo-13λ^6-thia-2,4,8,12,19-pentaaza-tricyclo[12.3.1.1^3,7]-nonadeca-1(18),3(19),4,6,14,16-hexaen-6-yl)-but-3-ynyl]-2-fluoro-5-methyl-benzene-sulfonamide] | ≤ 100 nM | ≤ 100 nM | > 10000 nM | > 10000 nM

Next, values leading:

IC50 (Tie-2) | IC50 (human KDR) | IC50 (CDK2/CycE) | IC50 (Plk1) | SMILES
≤ 100 nM | ≤ 100 nM | > 10000 nM | > 10000 nM | O=C(NCC#Cc1cnc2nc1NCCCNS(=O)(=O)c1cccc(c1)N2)Nc1cccc(C(F)(F)F)c1 [Example 4, 1-[3-(13,13-Dioxo-13λ^6-thia-2,4,8,12,19-pentaaza-tricyclo[12.3.1.1^3,7]-nonadeca-1(18),3(19),4,6,14,16-hexaen-6-yl)-prop-2-ynyl]-3-(3-trifluoromethyl-phenyl)-urea]
≤ 100 nM | 100 to 1000 nM | > 10000 nM | > 10000 nM | O=C(NCC#Cc1cnc2nc1NCCCNS(=O)(=O)c1cccc(c1)N2)NCc1ccccc1 [Example 5, 1-Benzyl-3-[3-(13,13-dioxo-13λ^6-thia-2,4,8,12,19-pentaaza-tricyclo[12.3.1.1^3,7]-nonadeca-1(18),3(19),4,6,14,16-hexaen-6-yl)-prop-2-ynyl]-urea]
100 to 1000 nM | ≤ 100 nM | 1000 to 10000 nM | > 10000 nM | O=C(NCCC#Cc1cnc2nc1NCCCNS(=O)(=O)c1cccc(c1)N2)Nc1ccccc1 [Example 6, 1-[4-(13,13-Dioxo-13λ^6-thia-2,4,8,12,19-pentaaza-tricyclo[12.3.1.1^3,7]-nonadeca-1(18),3(19),4,6,14,16-hexaen-6-yl)-but-3-ynyl]-3-phenyl-urea]
